Measurements from ChEMBL document CHEMBL1141497, “Discovery of novel FMS kinase inhibitors as anti-inflammatory agents” (Bioorg Med Chem Lett, 2008).

Columns and labels:
[1] = target: Macrophage colony-stimulating factor 1 receptor (Homo sapiens, UniProt P07333); test: biochemical
[2] = Cmax in CD1 mouse at 2 mg/kg, iv and 10 mg/kg, po; type: ADME, organism-based; conditions: in vivo
[3] = Half life in CD1 mouse at 2 mg/kg, iv and 10 mg/kg, po; type: ADME, organism-based; conditions: in vivo
[4] = Oral bioavailability in CD1 mouse at 10 mg/kg; type: ADME, organism-based; conditions: in vivo
Macrophage = test: Inhibition of FMS-induced proliferation of bone marrow derived human macrophages; type: functional, cell-based
[5] = Volume of distribution in CD1 mouse at 2 mg/kg, iv and 10 mg/kg, po; type: ADME, organism-based; conditions: in vivo, read-out: Vdss
[6] = target: Mast/stem cell growth factor receptor Kit (Homo sapiens, UniProt P10721); test: Inhibition of Kit after 30 mins by fluorescence polarization
Mast/stem cell growth factor receptor Kit, sequence (P10721 whole entry): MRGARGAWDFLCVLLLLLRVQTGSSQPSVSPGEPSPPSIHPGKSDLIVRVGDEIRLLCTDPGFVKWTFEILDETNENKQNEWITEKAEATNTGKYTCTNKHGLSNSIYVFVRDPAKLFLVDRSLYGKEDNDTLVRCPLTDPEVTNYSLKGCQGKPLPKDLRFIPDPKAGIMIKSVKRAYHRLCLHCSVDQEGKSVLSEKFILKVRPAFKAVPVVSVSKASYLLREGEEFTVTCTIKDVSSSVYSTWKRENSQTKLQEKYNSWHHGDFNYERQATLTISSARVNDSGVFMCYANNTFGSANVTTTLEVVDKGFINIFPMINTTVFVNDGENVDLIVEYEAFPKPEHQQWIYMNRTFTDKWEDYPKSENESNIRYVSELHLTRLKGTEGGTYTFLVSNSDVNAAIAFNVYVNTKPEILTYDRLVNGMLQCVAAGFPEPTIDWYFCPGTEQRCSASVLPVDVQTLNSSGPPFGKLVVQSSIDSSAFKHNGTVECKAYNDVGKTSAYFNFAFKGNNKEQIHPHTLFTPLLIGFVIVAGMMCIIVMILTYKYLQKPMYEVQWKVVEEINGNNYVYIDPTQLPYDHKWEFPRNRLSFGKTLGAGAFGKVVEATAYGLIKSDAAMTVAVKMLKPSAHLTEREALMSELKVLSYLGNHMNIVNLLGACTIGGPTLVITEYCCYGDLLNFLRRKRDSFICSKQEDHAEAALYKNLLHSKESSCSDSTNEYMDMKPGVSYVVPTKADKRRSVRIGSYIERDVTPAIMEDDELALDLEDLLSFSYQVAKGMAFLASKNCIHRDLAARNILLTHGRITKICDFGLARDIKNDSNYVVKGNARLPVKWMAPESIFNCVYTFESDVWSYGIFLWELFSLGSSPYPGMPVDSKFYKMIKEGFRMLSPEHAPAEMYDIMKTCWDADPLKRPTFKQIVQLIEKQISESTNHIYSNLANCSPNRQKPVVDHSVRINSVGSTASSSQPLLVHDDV

Mus musculus [7] = organism: Mus musculus; test: Reduction in pannus formation in mouse CIA model BID for 14 days; type: functional; set-up: scale not given: the % may be the effect or the level left
Mus musculus [8] = test: Reduction in progression of collagen-induced arthritis scores in mouse CIA model at 5 mg/kg, po bid; type: functional; set-up: scale not given: the % may be the effect or the level left
Mus musculus [9] = organism: Mus musculus; test: Reduction in bone destruction in mouse CIA model BID for 14 days; type: functional; set-up: scale not given: the % may be the effect or the level left
Mus musculus [10] = test: Reduction in progression of collagen-induced arthritis scores in mouse CIA model at 30 mg/kg, po bid; type: functional; set-up: scale not given: the % may be the effect or the level left
[11] = target: High affinity nerve growth factor receptor (Homo sapiens, UniProt P04629); test: Inhibition of TrkA after 27 mins by fluorescence polarization
High affinity nerve growth factor receptor, sequence (P04629 whole entry): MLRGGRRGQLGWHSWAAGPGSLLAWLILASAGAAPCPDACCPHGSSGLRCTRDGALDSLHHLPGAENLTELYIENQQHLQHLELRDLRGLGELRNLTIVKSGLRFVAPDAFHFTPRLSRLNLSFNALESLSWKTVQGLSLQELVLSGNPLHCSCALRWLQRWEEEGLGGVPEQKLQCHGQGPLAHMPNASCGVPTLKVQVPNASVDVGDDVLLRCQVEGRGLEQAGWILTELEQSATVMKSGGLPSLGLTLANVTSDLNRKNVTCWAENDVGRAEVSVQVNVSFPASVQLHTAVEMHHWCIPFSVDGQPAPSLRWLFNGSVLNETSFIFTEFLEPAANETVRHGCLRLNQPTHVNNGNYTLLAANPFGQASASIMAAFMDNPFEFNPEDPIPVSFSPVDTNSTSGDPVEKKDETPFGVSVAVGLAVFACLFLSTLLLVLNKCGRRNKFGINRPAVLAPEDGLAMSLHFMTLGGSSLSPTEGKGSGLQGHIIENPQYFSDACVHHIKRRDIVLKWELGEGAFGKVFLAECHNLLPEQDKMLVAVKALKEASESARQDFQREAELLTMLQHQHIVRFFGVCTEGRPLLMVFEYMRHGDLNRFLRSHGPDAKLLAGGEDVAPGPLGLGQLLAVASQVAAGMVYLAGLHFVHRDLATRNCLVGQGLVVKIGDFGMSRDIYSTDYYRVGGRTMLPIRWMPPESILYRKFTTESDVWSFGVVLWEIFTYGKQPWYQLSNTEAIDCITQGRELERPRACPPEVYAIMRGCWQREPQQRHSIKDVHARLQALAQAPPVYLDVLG

Macrophage colony-stimulating factor 1 receptor, sequence (P07333 whole entry): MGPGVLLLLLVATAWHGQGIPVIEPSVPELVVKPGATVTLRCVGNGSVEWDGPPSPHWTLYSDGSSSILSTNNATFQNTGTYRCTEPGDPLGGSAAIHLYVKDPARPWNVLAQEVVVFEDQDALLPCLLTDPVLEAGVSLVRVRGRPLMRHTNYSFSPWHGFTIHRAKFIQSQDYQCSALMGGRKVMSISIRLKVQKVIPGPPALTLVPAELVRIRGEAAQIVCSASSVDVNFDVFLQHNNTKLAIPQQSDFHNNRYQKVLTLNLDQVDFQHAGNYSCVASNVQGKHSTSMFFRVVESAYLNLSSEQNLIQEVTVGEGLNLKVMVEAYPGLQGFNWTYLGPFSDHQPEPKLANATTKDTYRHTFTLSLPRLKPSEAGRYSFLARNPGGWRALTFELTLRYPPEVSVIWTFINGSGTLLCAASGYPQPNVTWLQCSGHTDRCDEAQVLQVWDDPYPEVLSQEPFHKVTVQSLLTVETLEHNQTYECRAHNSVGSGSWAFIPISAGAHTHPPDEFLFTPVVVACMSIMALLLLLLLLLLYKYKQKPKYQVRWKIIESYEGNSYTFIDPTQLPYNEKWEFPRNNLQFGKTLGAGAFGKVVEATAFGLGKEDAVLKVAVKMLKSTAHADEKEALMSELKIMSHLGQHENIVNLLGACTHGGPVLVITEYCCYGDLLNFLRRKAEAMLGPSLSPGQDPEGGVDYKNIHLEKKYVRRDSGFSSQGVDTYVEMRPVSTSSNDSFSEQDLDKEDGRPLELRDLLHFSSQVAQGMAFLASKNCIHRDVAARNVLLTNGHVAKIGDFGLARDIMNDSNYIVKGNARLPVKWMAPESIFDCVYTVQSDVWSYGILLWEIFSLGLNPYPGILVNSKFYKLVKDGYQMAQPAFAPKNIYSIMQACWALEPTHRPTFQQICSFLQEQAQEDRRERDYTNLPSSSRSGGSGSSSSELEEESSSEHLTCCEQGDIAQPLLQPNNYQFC

N#Cc1ccc(C(=O)Nc2ccc(N3CCS(=O)(=O)CC3)cc2N2CCCCC2)o1
IC50 [1]: 0.7 nM

CC1CCN(c2cc(N3CCN(C)CC3)ccc2NC(=O)c2ccc(C#N)o2)CC1
Cmax [2]: 454 ng/mL
half-life [3]: 1.63 h
bioavailability [4]: 39%
IC50 (Macrophage): 2 nM
Vd [5]: 11.4 L/kg

N#Cc1ccc(C(=O)Nc2ccc(-n3ccnc3)cc2N2CCCCC2)o1
IC50 [1]: 3 nM

CN1CCN(c2ccc(NC(=O)c3ccc(C#N)o3)c(N3CCOCC3)c2)CC1
IC50 (Macrophage): 2800 nM
IC50 [1]: 80 nM

CC1CCN(c2cc(N3CCOCC3)ccc2NC(=O)c2ccc(C#N)o2)CC1
IC50 [1]: 11 nM

N#Cc1ccc(C(=O)Nc2ccc(N3CCCCC3)cc2N2CCCCC2)o1
IC50 [1]: 17 nM

CC1CCN(c2cc(N3CCN(C)CC3)ccc2NC(=O)c2cc(C#N)c[nH]2)CC1
Cmax [2]: 853 ng/mL
half-life [3]: 4.07 h
bioavailability [4]: 45%
IC50 [6]: 3.5 nM
Vd [5]: 5.63 L/kg
Activity (Mus musculus [7]): 80%
Activity (Mus musculus [8]): 35%
Activity (Mus musculus [9]): 80%
Activity (Mus musculus [10]): 65%
IC50 [11]: 11 nM

Cc1cnn(-c2ccc(NC(=O)c3ccc(C#N)o3)c(N3CCCCC3)c2)c1
IC50 [1]: 64 nM

CN1CCN(c2ccc(NC(=O)c3ccc(C#N)o3)c(N3CCCC(F)C3)c2)CC1 (configuration not stated)
IC50 [1]: 6.3 nM

CCN(C)CCCc1ccc(NC(=O)c2ccc(C#N)o2)c(N2CCCCC2)c1
IC50 [1]: 52 nM

CN1CCN(C(=O)N(C)c2ccc(NC(=O)c3ccc(C#N)o3)c(N3CCCCC3)c2)CC1
IC50 [1]: 83 nM

CN1CCN(c2ccc(NC(=O)c3ccc(C#N)o3)c(N3CCCCC3)c2)CC1
Cmax [2]: 386 ng/mL
half-life [3]: 1.03 h
bioavailability [4]: 32%
IC50 (Macrophage): 5 nM
Vd [5]: 7.97 L/kg

CN(c1ccc(NC(=O)c2ccc(C#N)o2)c(N2CCCCC2)c1)S(C)(=O)=O
IC50 [1]: 25 nM

CN1CCN(c2ccc(NC(=O)c3ccc(C#N)o3)c(N3CCCCC3=O)c2)CC1
IC50 (Macrophage): > 10000 nM
IC50 [1]: > 60 nM

CC1CCN(c2cc(N3CCN(C)CC3)cnc2NC(=O)c2ccc(C#N)o2)CC1
IC50 [1]: 720 nM

CC1CCN(c2cc(N3CCNCC3)ccc2NC(=O)c2cc(C#N)c[nH]2)CC1
IC50 [1]: 1 nM

CC1CCN(c2cc(N3CCN(S(C)(=O)=O)CC3)ccc2NC(=O)c2ccc(C#N)o2)CC1
IC50 [1]: 0.9 nM

N#Cc1ccc(C(=O)Nc2ccc(F)cc2N2CCCCC2)o1
IC50 [1]: 63 nM

CS(=O)(=O)Nc1ccc(NC(=O)c2ccc(C#N)o2)c(N2CCCCC2)c1
IC50 [1]: 71 nM

CC1CCN(c2nc(N3CCN(C)CC3)ccc2NC(=O)c2ccc(C#N)o2)CC1
IC50 [1]: 10 nM

CCOc1ccc(NC(=O)c2ccc(C#N)o2)c(N2CCCCC2)c1
IC50 [1]: 21 nM

CN1CCN(c2ccc(NC(=O)c3cc(C#N)c[nH]3)c(N3CCCCC3)c2)CC1
IC50 (Macrophage): 2 nM

CC(=O)N1CCN(c2ccc(NC(=O)c3cc(C#N)c[nH]3)c(N3CCC(C)CC3)c2)CC1
IC50 [1]: 0.7 nM
